Assay results reported in ChEMBL document CHEMBL3137381, “MMV Box Onchocerca lienalis screening set”.

Key:
Type in all cases: functional
Onchocerca lienalis [1] = assay: MMV: Percent motility assay at a compound concentration of 1.25e-5 M. Activity score legend: 3: Active, 2: Moderately active; 1: Inactive, 0: Toxic; conditions: at 12.5 µM
Onchocerca lienalis [2] = assay: MMV: Percent motility assay at a compound concentration of 1.9e-7 M. Activity score legend: 3: Active, 2: Moderately active; 1: Inactive, 0: Toxic; conditions: at 0.19 µM
Onchocerca lienalis [3] = assay: MMV: Percent motility assay at a compound concentration of 3.1e-6 M. Activity score legend: 3: Active, 2: Moderately active; 1: Inactive, 0: Toxic; conditions: at 3.1 µM
Onchocerca lienalis [4] = assay: MMV: Percent motility assay at a compound concentration of 7.8e-7 M. Activity score legend: 3: Active, 2: Moderately active; 1: Inactive, 0: Toxic; conditions: at 0.78 µM

Compound	Motility (Onchocerca lienalis [1]) [%]	Motility (Onchocerca lienalis [2]) [%]	Motility (Onchocerca lienalis [3]) [%]	Motility (Onchocerca lienalis [4]) [%]
COc1ccc(-c2cc3c(nn2)-c2ccccc2C3=O)cc1	100	100	100	100
c1ccc(/C2=N/c3ccccc3/N=C(/c3ccccc3)c3ccccc32)cc1	100	100	100	100
CCOC(=O)C1=C(C)N=c2sc(=Cc3ccccc3O)c(=O)n2C1c1ccc(OC)c2ccccc12 (configuration not stated)	100	100	100	100
COc1ccc(CN2CCCC(C(=O)c3ccc(C(F)(F)F)cc3)C2)c(O)c1 (configuration not stated)	100	100	100	100
O=C(NC1CCCCC1)C(c1cccs1)N(CCc1ccccc1)C(=O)c1ccco1 (configuration not stated)	100	100	100	100
Cl.c1ccc2c(NCCCCCCNc3c4c(nc5ccccc35)CCCC4)c3c(nc2c1)CCCC3	100	100	100	100
Brc1ccc(Nc2nc3ccccc3nc2Nc2ccc(Br)cc2)cc1	100	100	100	100
Nc1ccc(-c2nc3cc(Cc4ccc5[nH]c(-c6ccc(N)cc6)nc5c4)ccc3[nH]2)cc1	0	100	66.66	100
CCCCOC(=O)c1ccc(Nc2cc(C)nc3ccc(OC)cc23)cc1	100	100	100	100
Cc1cc(Nc2ccc(OCc3ccccc3)cc2)nc2cc(O)ccc12	66.66	100	100	100
N=c1c2ccccc2nnn1-c1cccc(C(F)(F)F)c1	100	100	100	100
COc1cc(-c2nc(-c3ccc(Sc4ccccc4)cc3)c(-c3ccccc3)[nH]2)cc(OC)c1O	100	100	100	100
COc1ccc(C2NCCc3c2[nH]c2ccccc32)cc1CN1CCN(c2ccc(F)cc2)CC1.Cl (configuration not stated)	100	100	100	100
OC(Cn1nnc2ccccc21)Cn1c2ccc(Br)cc2c2cc(Br)ccc21 (configuration not stated)	100	100	100	100
CCOc1ccc(-n2cc(-c3ccccc3)c3c(SCc4cc(C)ccc4C)ncnc32)cc1	100	100	100	100
Cc1ccc(C)c(Cn2c(N3CCC(C(=O)NCc4cccs4)CC3)nc3ccccc32)c1	100	100	100	100
Cc1ccccc1OCCSc1nc2ccc(NC(=O)c3cccs3)cc2s1	100	100	100	100
COc1ccc(C2C(C(=O)Nc3cccc(OC)c3)c3ccccc3C(=O)N2C2CCCCC2)cc1 (configuration not stated)	100	100	100	100
c1ccc2c(NCCc3c[nH]c4ccccc34)c3ccccc3nc2c1	100	100	100	100

Compound	Motility (Onchocerca lienalis [1]) [%]	Motility (Onchocerca lienalis [2]) [%]	Motility (Onchocerca lienalis [3]) [%]	Motility (Onchocerca lienalis [4]) [%]
CCN(CC)CCCNc1ccnc2cc3ccccc3cc12	100	100	100	100
O=C(Nc1ccc(-c2nc3cc4ccccc4cc3[nH]2)cc1)c1cccc(Br)c1	100	100	100	100
Cc1ccc(-c2nc3ccccc3o2)cc1NCc1cc(Cc2ccccc2)ccc1O	100	100	100	100
COc1cccc(C(=O)NC(c2ccc(C)cc2)c2cc(Cl)c3cccnc3c2O)c1 (configuration not stated)	0	100	33.33	100
COc1ccc(C(O)(CCC(C)C)C(CN2CCOCC2)c2ccc(Cl)cc2)cc1.Cl (configuration not stated)	100	100	100	100
CCCOCc1cc(CN2CCN(c3cccc(Cl)c3)CC2)c(O)c2ncccc12	100	100	100	100
O=C(Cc1ccccc1)NC(c1ccc(Cl)cc1)c1c(O)ccc2ccccc12 (configuration not stated)	100	100	100	100
CCOc1ccc2c(c1)CN(Cc1ccc(Cl)cc1)CO2	100	100	100	100
COc1ccc(C(=O)NC(c2ccccc2Cl)c2cc(Cl)c3cccnc3c2O)cc1 (configuration not stated)	100	100	100	100
Cc1cccc(N2C(=O)C3C(C2=O)C2(c4ccccc4)C(=O)C3(c3ccccc3)C(c3ccc4c(c3)OCO4)=C2c2ccc3c(c2)OCO3)c1 (configuration not stated)	100	100	100	100
CCCc1c(C)nc2ccc(Br)cc2c1O	100	100	100	100
Cc1ccc(F)cc1NC(=O)c1cc(Cl)ccc1Nc1ccccc1	100	100	100	100
CCOc1ccc(Nc2c3ccccc3nc3ccccc23)cc1.Cl	100	100	100	100
CCCCCCc1cc2cc(-c3nc4ccccc4[nH]3)c(=Nc3ccccc3C)oc2cc1O	100	100	100	100
CCCCCCC(O)(c1ccc(F)cc1)C(CN1CCOCC1)c1ccccc1.Cl (configuration not stated)	100	100	100	100
COc1cc(OC)cc(N2C(=O)N(Cc3ccc(C(C)(C)C)cc3)c3ccccc3S2(=O)=O)c1	33.33	100	100	100
CCOc1c(Br)cc(C2C(C(=O)OC)=CN(C)C=C2C(=O)OC)cc1OC	100	100	100	100
COc1ccccc1N1C(=N)SC(=Cc2ccc(OCc3ccccc3F)cc2)C1=O	100	100	100	100
CCOC(=O)c1c[nH]c2c(CC)cccc2c1=O	100	100	100	100
